Data reported in ChEMBL document CHEMBL1909294, “Translating clinical findings into knowledge in drug safety evaluation--drug induced liver injury prediction system (DILIps)” (PLoS Comput Biol, 2011).

Columns and labels:
Hepatotoxicity [1] = system: Hepatotoxicity;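 on HepSE Combined Scores: combined hepatic side effect score as listed in the training data of the Drug Induced Liver Injury Prediction System (DILIps)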;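 on HepSE elevated liver function tests: hepatic side effect score for raised liver function tests, as recorded in the DILIps training set used for predicting drug-induced liver injury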; on HepSE hepatic failure: call rule not given here;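 on HepSE hepatitis: Hepatitis-related hepatic side effect score taken from the training data of DILIps, a prediction system for drug-induced liver injury; call rule not given here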;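 on HepSE hepatomegaly: hepatic side effect score for hepatomegaly, taken from the training set of the DILIps drug-induced liver injury prediction system; call rule not given here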;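 on HepSE jaundice: Jaundice-related hepatic side-effect score drawn from the training data of the DILIps (drug-induced liver injury prediction system); call rule not given here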;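 on HepSE liver fatty: hepatic side effect score for fatty liver, taken from the DILIps training set for predicting drug-induced liver injury; call rule not given here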
Hepatotoxicity [2] = system: Hepatotoxicity; remark: listed apart in the source;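 on HepSE Combined Scores: combined hepatic side effect score as listed in the training data of the Drug Induced Liver Injury Prediction System (DILIps)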;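 on HepSE elevated liver function tests: hepatic side effect score for raised liver function tests, as recorded in the DILIps training set used for predicting drug-induced liver injury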; on HepSE hepatic failure: call rule not given here;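 on HepSE hepatitis: Hepatitis-related hepatic side effect score taken from the training data of DILIps, a prediction system for drug-induced liver injury; call rule not given here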;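 on HepSE hepatomegaly: hepatic side effect score for hepatomegaly, taken from the training set of the DILIps drug-induced liver injury prediction system; call rule not given here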;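 on HepSE jaundice: Jaundice-related hepatic side-effect score drawn from the training data of the DILIps (drug-induced liver injury prediction system); call rule not given here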;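 on HepSE liver fatty: hepatic side effect score for fatty liver, taken from the DILIps training set for predicting drug-induced liver injury; call rule not given here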
Hepatotoxicity [3] = system: Hepatotoxicity; remark: listed apart in the source;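 on HepSE Combined Scores: combined hepatic side effect score as listed in the training data of the Drug Induced Liver Injury Prediction System (DILIps)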; on HepSE hepatic failure: call rule not given here;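 on HepSE hepatitis: Hepatitis-related hepatic side effect score taken from the training data of DILIps, a prediction system for drug-induced liver injury; call rule not given here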;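 on HepSE hepatomegaly: hepatic side effect score for hepatomegaly, taken from the training set of the DILIps drug-induced liver injury prediction system; call rule not given here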;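 on HepSE jaundice: Jaundice-related hepatic side-effect score drawn from the training data of the DILIps (drug-induced liver injury prediction system); call rule not given here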;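 on HepSE liver fatty: hepatic side effect score for fatty liver, taken from the DILIps training set for predicting drug-induced liver injury; call rule not given here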
Hepatotoxicity [4] = system: Hepatotoxicity; remark: listed apart in the source;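 on HepSE Combined Scores: combined hepatic side effect score as listed in the training data of the Drug Induced Liver Injury Prediction System (DILIps)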; on HepSE hepatic failure: call rule not given here;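 on HepSE hepatitis: Hepatitis-related hepatic side effect score taken from the training data of DILIps, a prediction system for drug-induced liver injury; call rule not given here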;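 on HepSE hepatomegaly: hepatic side effect score for hepatomegaly, taken from the training set of the DILIps drug-induced liver injury prediction system; call rule not given here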;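 on HepSE jaundice: Jaundice-related hepatic side-effect score drawn from the training data of the DILIps (drug-induced liver injury prediction system); call rule not given here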;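 on HepSE liver fatty: hepatic side effect score for fatty liver, taken from the DILIps training set for predicting drug-induced liver injury; call rule not given here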
Hepatotoxicity [5] = system: Hepatotoxicity; remark: listed apart in the source; on HepSE hepatic failure: call rule not given here
Hepatotoxicity [6] = system: Hepatotoxicity; remark: listed apart in the source; on HepSE hepatic failure: call rule not given here
Hepatotoxicity [7] = system: Hepatotoxicity; remark: listed apart in the source
Hepatotoxicity [8] = system: Hepatotoxicity; remark: listed apart in the source
Hepatotoxicity [9] = system: Hepatotoxicity; remark: listed apart in the source
Hepatotoxicity [10] = system: Hepatotoxicity; remark: listed apart in the source
Hepatotoxicity [11] = system: Hepatotoxicity; remark: listed apart in the source
Hepatotoxicity [12] = system: Hepatotoxicity; remark: listed apart in the source
Hepatotoxicity [13] = system: Hepatotoxicity; remark: listed apart in the source
Hepatotoxicity [14] = system: Hepatotoxicity; remark: listed apart in the source

Structure (SMILES)	HepSE_hepatic failure (Hepatotoxicity [1])	HepSE_Combined Scores (Hepatotoxicity [2])	HepSE_hepatomegaly (Hepatotoxicity [3])	HepSE_jaundice (Hepatotoxicity [4])	HepSE_liver fatty (Hepatotoxicity [5])	HepSE_hepatitis (Hepatotoxicity [6])	HepSE_elevated liver function tests (Hepatotoxicity [7])	HepSE_hepatic necrosis (Hepatotoxicity [8])	HepSE_cholecystitis (Hepatotoxicity [9])	HepSE_bilirubinemia (Hepatotoxicity [10])	HepSE_cholelithiasis (Hepatotoxicity [11])	HepSE_liver function tests abnormal (Hepatotoxicity [12])	HepSE_cirrhosis (Hepatotoxicity [13])	HepSE_liver disease (Hepatotoxicity [14])	also measured
CC(C)NCC(O)c1ccc(O)c(O)c1 (stereo not drawn) [ISOPROTERENOL]															HepSE_hepatic failure (Hepatotoxicity [1]; Liver): 0; HepSE_Combined Scores (Hepatotoxicity [2]; Liver): 0; HepSE_hepatomegaly (Hepatotoxicity [3]; Liver): 0; HepSE_jaundice (Hepatotoxicity [4]; Liver): 0; HepSE_liver fatty (Hepatotoxicity [5]; Liver): 0; HepSE_hepatitis (Hepatotoxicity [6]; Liver): 0; HepSE_elevated liver function tests (Hepatotoxicity [7]; Liver): 0; HepSE_hepatic necrosis (Hepatotoxicity [8]; Liver): 0; HepSE_cholecystitis (Hepatotoxicity [9]; Liver): 0; HepSE_bilirubinemia (Hepatotoxicity [10]; Liver): 0; HepSE_cholelithiasis (Hepatotoxicity [11]; Liver): 0; HepSE_liver function tests abnormal (Hepatotoxicity [12]; Liver): 0; HepSE_cirrhosis (Hepatotoxicity [13]; Liver): 0; HepSE_liver disease (Hepatotoxicity [14]; Liver): 0
O=[N+]([O-])O[C@H]1CO[C@H]2[C@@H]1OC[C@H]2O[N+](=O)[O-] [ISOSORBIDE DINITRATE]	0	0	0	0	0	0	0	0	0	0	0	0	0	0	
O=[N+]([O-])O[C@@H]1CO[C@H]2[C@@H]1OC[C@@H]2O [ISOSORBIDE MONONITRATE]	0	2	1	0	0	0	0	0	1	0	0	0	0	0	
CC(COc1ccccc1)NC(C)C(O)c1ccc(O)cc1 (stereo not drawn) [ISOXSUPRINE]	0	0	0	0	0	0	0	0	0	0	0	0	0	0	
COC(=O)C1=C(C)NC(C)=C(C(=O)OC(C)C)C1c1cccc2nonc12 (stereo not drawn) [ISRADIPINE]	0	1	0	0	0	0	1	0	0	0	0	0	0	0	
CCC(C)n1ncn(-c2ccc(N3CCN(c4ccc(OCC5COC(Cn6cncn6)(c6ccc(Cl)cc6Cl)O5)cc4)CC3)cc2)c1=O (stereo not drawn) [ITRACONAZOLE]	1	7	0	1	0	1	0	0	0	1	0	1	1	1	
CNC1(c2ccccc2Cl)CCCCC1=O (stereo not drawn) [KETAMINE]	0	0	0	0	0	0	0	0	0	0	0	0	0	0	
CC(=O)N1CCN(c2ccc(OCC3COC(Cn4ccnc4)(c4ccc(Cl)cc4Cl)O3)cc2)CC1 (stereo not drawn) [KETOCONAZOLE]	0	0	0	0	0	0	0	0	0	0	0	0	0	0	
CC(C(=O)O)c1cccc(C(=O)c2ccccc2)c1 (stereo not drawn) [KETOPROFEN]	0	2	0	1	0	1	0	0	0	0	0	0	0	0	
O=C(c1ccccc1)c1ccc2n1CCC2C(=O)O (stereo not drawn) [KETOROLAC]	1	3	0	1	0	1	0	0	0	0	0	0	0	0	
CN1CCC(=C2c3ccccc3CC(=O)c3sccc32)CC1 [KETOTIFEN]	0	1	0	0	0	1	0	0	0	0	0	0	0	0	
CC(CCc1ccccc1)NCC(O)c1ccc(O)c(C(N)=O)c1 (stereo not drawn) [LABETALOL]	0	4	0	1	0	1	1	1	0	0	0	0	0	0	
OC[C@H]1O[C@@H](O[C@@H]2[C@@H](CO)O[C@](O)(CO)[C@H]2O)[C@H](O)[C@@H](O)[C@H]1O [LACTULOSE]	0	0	0	0	0	0	0	0	0	0	0	0	0	0	
Nc1ccn([C@@H]2CS[C@H](CO)O2)c(=O)n1 [LAMIVUDINE]	0	3	1	1	1	0	0	0	0	0	0	0	0	0	
Nc1nnc(-c2cccc(Cl)c2Cl)c(N)n1 [LAMOTRIGINE]	0	3	0	0	0	1	0	0	0	1	0	1	0	0	
CC(C)[C@@H]1NC(=O)[C@H](CCCCN)NC(=O)[C@@H](Cc2c[nH]c3ccccc23)NC(=O)[C@H](Cc2ccc(O)cc2)NC(=O)[C@@H](NC(=O)[C@H](N)Cc2ccc3ccccc3c2)CSSC[C@@H](C(=O)N[C@H](C(N)=O)[C@@H](C)O)NC1=O [LANREOTIDE]	0	4	1	0	0	0	0	0	1	1	1	0	0	0	
Cc1c(OCC(F)(F)F)ccnc1C[S+]([O-])c1nc2ccccc2[nH]1 (stereo not drawn) [LANSOPRAZOLE]	0	4	0	1	0	0	0	0	0	1	1	1	0	0	
